Measured values taken from patent publication US6465429B1, “Antimicrobial cationic peptides” (priority 1995, dated 2002).
“And” between values parts separate entries of the source, which are not always exact repeats. Equal entries are not always repeated. “Also recorded” adds a separate entry of the source. Ends that are not written are not given here.

Experiments:
[1] = Synergy of MBI 26 with lysozyme and further antibiotics (reduction in MIC); format: cell-based; conditions: in combination with MBI 26 (1.25 μg/mL)
E. coli ML 35 = assay: Inner membrane permeabilization (β-galactosidase, ONPG); format: cell-based; conditions: for Lag Time / Rate of Hydrolysis: inner membrane permeabilization; for Lag Time: E. coli ML 35; for Rate of Hydrolysis: E. coli ML 35, ONPG
Experimental: Inner membrane permeability was determined by measurement in E. coli ML 35 of β-galactosidase activity using ONPG as a substrate. Normally ONPG cannot pass across the cytoplasmic membrane to permit hydrolysis by the cytoplasmic enzyme β-galactosidase. However, cationic peptides, by permeabilizing the inner membrane, unmasks this enzyme leading to color development as ONP is released. […] Addition of citrate increased the lag time before the peptides were able to permeabilize the membranes. When the experiments were executed in cation adjusted media (CAMHB), the lag time was increased up to 30 minutes.

[2] = test system: LPS-induced TNF in RAW 264.7 macrophage cells; assay: Inhibition of LPS-mediated TNF induction in macrophages (L929 cytotoxic assay); format: cell-based
Experimental: RAW 264.7 macrophage cells were grown by seeding 10^6 cells into a 162 cm^2 cell culture flask and incubated at 37° C., 5%CO2 for 1 week. RAW cell media [(Dulbecco's Modified Eagle Medium with Hepes buffer 450 ml; 2.4 mML-glutamine 3 ml (400 mM); Pen/Strep 3 ml (10^4U/ml of Pen, 1 mg/ml strep); and 10% heat inactivated fetal bovine serum (FBS) 50 ml)] was then completely removed from flasks. 10 mls of cell dissociation solution (Sigma) was added to each flask and inc; bated at 37° C. for 10 minutes. Cells were removed from flasks, diluted in RAW cell media and centrifuged for 6 minutes. The cell pellet was resuspended in 5 ml of media/flask used, 100 μl cell suspension was removed and added to 400 ∥l of trypan blue and cells were counted using a hemocytometer. The cell suspension was diluted to 1×10^6 cells/ml and 1 ml of suspension was added per well of a 24 well plate. The 24 well plates were incubated at 37° C., 5% CO2 overnight for use in the assay.
After an overnight incubation, the media was aspirated from all the wells. 100 μl of Lipopolysaccharide (LPS) was added at 100 ng/100 μl. CEME, CEMA or MBI 29 was added at the desired concentration/100 μl to specified wells. […] The plates were then incubated for six hours at 37° C., 5% CO2. The supernatant was then removed from the wells and stored overnight at 4° C. For those wells in which whole bacteria were added directly to the wells, the supernatant was centrifuged in 0.2 μm filter eppendorf tubes for 5 minutes.
The supernatants were then used in cell cytotoxic L929 assay. The samples were transferred to 96 well plates. […]
TNF-sensitive L929 mouse fibroblast cells were grown by seeding 10^6 cells into a 162 cm^2 cell culture flask and left to grow for 1 week. […] The pellet was resuspended in 5 mls of fresh L929 media/flask and counted (same as RAW cells). […]
The plates were read at 570 nm in a ELISA plate reader with 690 nm reference filter. […]
In order to determine how rapidly the cationic peptides reduced LPS-induced TNF production, E. coli 0111:B4 was added at time 0 to RAW macrophages. […] Levels of TNF were measured after 6 hours. […]

RAW cells = assay: RAW cell viability by Trypan blue exclusion; format: cell-based
Red Blood Cells = assay: Red Blood Cell lysis; format: cell-based
P. aeruginosa = assay: microbe, parasite or virus in culture; conditions: agent alone
Experimental: FICs are performed by checkerboard titrations of peptides in one dimension of a microtiter plate, and of antibiotics in the other dimension, for example. The FIC is calculated by looking at the impact of one antibiotic on the MIC of the other and vice versa. […] Preferably, an FIC of less than 0.5 is obtained for synergism. As used herein, FIC can be determined as follows: [formula]
Synergism is identified as an FIC of about ≦0.5.

[3] = Dansyl polymyxin displacement assay; format: binding; conditions: Dansyl polymyxin displacement from LPS
Description: In addition, the peptides of SEQ ID NO: 5-8 also bound effectively to LPS with high affinity based on Dansyl polymyxin displacement assays (Table 5).

[4] = α helical content by CD spectra; format: physicochemical
Experimental: The α helical content of the peptides were measured in buffer, liposomes and 20% Hexafluoroisopropanol (HFPIP). The liposomes constituted of POPC alone or POPC PC and 30% POPG (Table 7).

Candida albicans = assay: MIC, broth dilution in LB-S; format: cell-based; parameters: unit not given beside the values; conditions: Candida albicans (CAN105); Table 1a
Experimental: The biological activity of the peptides can be determined by standard methods known to those of skill in the art, such as “minimal inhibitory concentration (MIC)” assay described in the present examples, whereby the lowest concentration at which no change in OD is observed for a given period of time is recorded as MIC. Alternatively, “fractional inhibitory concentration (FIC)” is also useful for determination of synergy between the peptides of the invention, or the peptides in combination with known antibiotics. FICs are performed by checkerboard titrations of peptides in one dimension of a microtiter plate, and of antibiotics in the other dimension, for example. The FIC is calculated by looking at the impact of one antibiotic on the MIC of the other and vice versa. […] Preferably, an FIC of less than 0.5 is obtained for synergism. As used herein, FIC can be determined as follows: [formula]
Briefly, cells were grown overnight at 37° C. in LB-S (Luria broth without any salt supplement) and diluted one in 10,000 in the same medium to give concentrations of about 10^4 to 10^5 CFU/ml. The broth dilutions were set up in a 96 well microtiter plate by putting 200 μl of LB-S containing the initial concentration of antibiotic or compound in column 1 and 100 μl of the same medium in columns 2-12. […] The next day the plates were scored for growth in the wells, and the MIC determined.

Molecule	reduction in MIC [1]	RBC Lysis (Red Blood Cells)	Lag Time (E. coli ML 35)	Rate of Hydrolysis (E. coli ML 35)	Imax [3]	% α helicity ([4]; 20% HFIP)	% α helicity ([4]; Buffer)	% α helicity ([4]; POPC Liposomes)	% α helicity ([4]; POPC/POPG Liposomes)	other results
CO[C@@H]1[C@@H](OC(N)=O)[C@@H](O)[C@H](Oc2ccc3c(O)c(NC(=O)c4ccc(O)c(CC=C(C)C)c4)c(=O)oc3c2C)OC1(C)C [Novobiocin]	> 4 ×	–	–	–	–	–	–	–	–	–
CC1(C)S[C@@H]2[C@H](NC(=O)C(C(=O)O)c3ccccc3)C(=O)N2[C@H]1C(=O)O (some centres unmarked) [carbenicillin]	2 ×	–	–	–	–	–	–	–	–	–
Lysozyme	> 64 ×	–	–	–	–	–	–	–	–	–
CC[C@H](C)[C@H](NC(=O)[C@H](CC(C)C)NC(=O)[C@H](C)NC(=O)[C@@H]1CCCN1C(=O)[C@H](CC(C)C)NC(=O)CNC(=O)[C@@H](NC(=O)[C@@H](NC(=O)[C@H](CC(C)C)NC(=O)[C@@H](NC(=O)[C@H](CCCCN)NC(=O)[C@H](CCCCN)NC(=O)[C@@H](NC(=O)[C@H](C)NC(=O)[C@@H](NC(=O)[C@@H](NC(=O)[C@H](CC(C)C)NC(=O)[C@H](CCCCN)NC(=O)[C@H](CCCCN)NC(=O)[C@@H](NC(=O)[C@H](Cc1ccccc1)NC(=O)[C@H](CO)NC(=O)[C@H](CCCCN)NC(=O)[C@H](Cc1c[nH]c2ccccc12)NC(=O)[C@@H](N)CCCCN)[C@@H](C)CC)[C@@H](C)O)[C@@H](C)O)C(C)C)C(C)C)[C@@H](C)O)[C@@H](C)O)C(=O)N[C@@H](CO)C(=O)O [MBI 29]	–	>55 µg/mL	–	–	–	–	–	–	–	effect of 5 mM Mg++ on inner membrane permeabilization (E. coli ML 35; 4 ug peptide, +5 mM Mg): the least affected by any of the conditions; TNF induction in washed RAW cells pre-incubated with peptide ([2]; 20 μg MBI 29 for 60 minutes, washed 3 times, then 10 ng or 100 ng LPS): 14,000-20,000 Units of TNF per ml; inhibition of TNF induction by LPS ([2]; E. coli 0111:B4 LPS, peptide added at 0, 30 and 60 minutes, TNF after 6 hours): inhibited TNF induction by LPS in a similar manner to polymyxin B; reduction of LPS-induced TNF when added after LPS ([2]; added 60 minutes after the addition of LPS): effective at reducing the ability of LPS to induce TNF; also recorded: distinct and reproducible advantage over polymyxin B; amount causing no apparent decrease in RAW cell viability (RAW cells): Up to 50 μg; MIC (P. aeruginosa; P. aeruginosa isolate 27, strain 14644): 128 µg/mL and 123 µg/mL; MIC (P. aeruginosa; P. aeruginosa isolate 28, strain 15036): 128 µg/mL; MIC (P. aeruginosa; Table 33, P. aeruginosa isolate 23, strain ATCC 27853): 32 μg · mL^1; MIC (P. aeruginosa; Table 33, P. aeruginosa isolate 24, strain 34): 16 μg · mL^1; MIC (P. aeruginosa; Table 33, P. aeruginosa isolate 25, strain 923-1): 32 μg · mL^1; MIC (P. aeruginosa; Table 33, P. aeruginosa isolate 26, strain 3101): 32 μg · mL^1; MIC (P. aeruginosa; Table 33, P. aeruginosa isolate 27, strain 14644): 32 μg · mL^1; MIC (P. aeruginosa; Table 33, P. aeruginosa isolate 28, strain 15036): 32 μg · mL^1; MIC (P. aeruginosa; Table 33, P. aeruginosa isolate 29, strain 15545): 32 μg · mL^1; MIC (P. aeruginosa; Table 33, P. aeruginosa isolate 30, strain B3999-1): 32 μg · mL^1; MIC (P. aeruginosa; Table 33, P. aeruginosa isolate 31, strain U7688-1): 32 μg · mL^1; MIC (P. aeruginosa; Table 33, P. aeruginosa isolate 32, strain W2897-1): 32 μg · mL^1; MIC (P. aeruginosa; Table 33, P. aeruginosa isolate 33, strain W5483-2): 32 μg · mL^1
KWKSFIKNLEKVLKPGGLLSNIVTSL [compound 490]	–	>55 µg/mL	156 s	0.081 ΔAU min^−1	40%	41%	0%	29%	27%	–
KWKSFIKNLEKVLKKGPILANLVSIV [compound 491]	–	>55 µg/mL	152 s	0.14 ΔAU min^−1	24%	44%	0%	0%	15%	–
KWKLFKKIGIGAVLKVLTTGLPALIS [CEME]	–	–	–	–	–	–	–	–	–	MIC (Candida albicans): ≧64
KWKKFIKELQKVLAPGGLLSNIVTSL [compound 493]	–	>55 µg/mL	136 s	0.14 ΔAU min^−1	56%	42%	0%	18%	20%	–
